The values that follow come from US9481683B2, “1,3-benzothiazinone sulfoxide and sulfone compounds” (UNIVERSITY OF NOTRE DAME DU LAC, priority 2014, dated 2016).

One series relates to M. aurum (SB66). As to the kind of experiment: Broth microdilution MIC, M. aurum. The class given is cell-based, Mycobacterium aurum. The settings on record: 37° C., 18-20 h, average of three measurements, in µM. (In general: In broth dilution the organism is exposed to a series of concentrations in liquid medium.)
Another series has as its system P. aeruginosa KW799/61. The experiment in a line: Broth microdilution MIC, P. aeruginosa. It is filed as cell-based, Pseudomonas aeruginosa. The settings on record: 37° C., 18-20 h, average of three measurements.
The next series has as its system A. baumanii ATCC17961. The experiment in a line: Broth microdilution MIC, A. baumanii. It is filed as cell-based, Acinetobacter baumanii. The note with it: 37° C., 18-20 h, average of three measurements.
A further series deals with S. aureus SG511. As to the kind of experiment: Broth microdilution MIC, S. aureus. The settings on record: 37° C., 18-20 h, average of three measurements. The class given is cell-based, Staphylococcus aureus.
The subject of a further series is M. smegmatis (MC2155). As to the kind of experiment: Broth microdilution MIC, M. smegmatis. The settings on record: 37° C., 18-20 h, average of three measurements. It is filed as cell-based, Mycobacterium smegmatis.
Another series relates to M. luteus ATCC10240. As to the kind of experiment: Broth microdilution MIC, M. luteus. The settings on record: 37° C., 18-20 h, average of three measurements. It is filed as cell-based.
For another series, the system named is M. vaccae IMET10670. As to the kind of experiment: Broth microdilution MIC, M. vaccae. The class given is cell-based, Mycobacterium vaccae. The note with it: 37° C., 18-20 h, average of three measurements.
The next series has as its system M. marinum (ATCC: 927). As to the kind of experiment: NTM MIC assay, M. marinum. The settings on record: for In vitro activity (MIC) M. marinum: Middlebrook 7H9 with OADC, 30° C., 5 days. It is filed as cell-based, Mycobacterium marinum.
In another series the test system is PC3 (prostate cancer). As to the kind of experiment: Cytotoxicity, crystal violet biomass reduction assay, PC3. It is filed as cell-based. The note with it: 72 h. As to the method:
(§1) Cytotoxicity Assays: against PC3, HeLa and MCF-7 cell lines.
(§2) In vitro activities against cells were determined with a crystal violet biomass reduction assay. Cells were grown in media supplemented with fetal bovin serum and penicillin/streptromycin antibiotic. 100 μL of cell inoculums was added to each well. After cell inoculation, the 96 well micro-titer plates were incubated at 37° C. and 5% CO2 with 95% humidity for 24 h prior to addition of compounds. A stock solution of each compound was made in DMSO and then diluted with media to give a 40 μM solution. 100 μL of DMSO/media solutions of compounds were added in replicates of 3. 100 μL solution was added to the first set of wells. Two-fold serial dilutions were made down each row of the micro-titer plate. The cells were incubated in a 37° C., 5% CO2 and 95% humidity for 72 h. The media was removed and the cells were fixed with glutaraldehyde, rinsed, stained with crystal violet, rinsed and air dried. The stain was eluted with a solution of Triton-X-100 and optical density was measured at 595 nm. Trichostatin A was used as a positive control for all the cell lines tested.

In the next series the test system is HeLa. As to the kind of experiment: Cytotoxicity, crystal violet biomass reduction assay, HeLa. It is filed as cell-based. The note with it: 72 h. As to the method:
as §1, §2

In another series the test system is M. kansasii (ATCC:12478). As to the kind of experiment: NTM MIC assay, M. kansasii. It is filed as cell-based, Mycobacterium kansasii. The note with it: for In vitro activity (MIC) M. kansasii: Middlebrook 7H9 with OADC, 37° C., 6 days.
Another series concerns Mtb H37Rv (ATCC#27294). As to the kind of experiment: Microplate Alamar Blue assay (MABA), replicating TB. The class given is cell-based, Mycobacterium tuberculosis. The note with it: for MIC: Mycobacterium tuberculosis, H37Rv, reduction in fluorescence of ≧90%. (In general: Alamar Blue is a resazurin reagent that responds to reducing activity.)
In series [1] the test system is M. bovis BCG (ATCC: 35734). The class given is cell-based, Mycobacterium bovis. The note with it: for In vitro activity (MIC) M. bovis: M. bovis BCG, 7H12, 37° C., 6 days.
The subject of the next series is MCF-7 (breast cancer). As to the kind of experiment: Cytotoxicity, crystal violet biomass reduction assay, MCF-7. The settings on record: 72 h. It is filed as cell-based. As to the method: as §1, §2
Setting [2] is: 7H12 medium, read-out: MABA:MIC 7H12.
The mark [3] stands for this setting: glycerol-alanine-salts medium, read-out: MABA:MIC GAS.

Values after ≈ are worked out from the molar mass of the structure shown. Read-outs that look alike come from different tables or passages of the source.

Consider `O=C(O)c1cn(C2CC2)c2cc(N3CCNCC3)c(F)cc2c1=O` [Ciprofloxacin, reference compound], for which the “In vitro activity (MIC) M. aurum” value with M. aurum (SB66) was 0.020. Moreover, the “In vitro activity (MIC) P. aeruginosa KW799/61” value with P. aeruginosa KW799/61 was determined as 0.156. In the series with A. baumanii ATCC17961, this compound yielded an In vitro activity (MIC) A. baumanii ATCC17961 of 0.156 µM. This compound also registered an In vitro activity (MIC) S. aureus SG511 in the series on S. aureus SG511 of 0.32 µM. For the same compound, in the series on M. smegmatis (MC2155), the In vitro activity (MIC) M. smegmatis is 0.32 µM. In the series with M. luteus ATCC10240, this compound had an In vitro activity (MIC) M. luteus ATCC10240 of 1.25 µM. The compound also had an In vitro activity (MIC) M. vaccae IMET10670 in the series on M. vaccae IMET10670 of 0.32 µM.

In the case of `C[C@H]1COC2(CCN(c3nc(=O)c4cc(C(F)(F)F)cc([N+](=O)[O-])c4s3)CC2)O1` [Compound 1, BTZ043, reference compound], the “In vitro activity (MIC) M. aurum” value in the series on M. aurum (SB66) was more than 200. Further, the In vitro activity (MIC) M. marinum with M. marinum (ATCC: 927) came to 0.037 µM. For the same compound, the “In vitro activity (MIC) P. aeruginosa KW799/61” value in the series with P. aeruginosa KW799/61 was more than 200. This compound also displayed an In vitro activity (MIC) A. baumanii ATCC17961 in the series with A. baumanii ATCC17961 of more than 200 µM. Also, the “Cytotoxicity PC3” value in the series on PC3 (prostate cancer) was more than 20. In addition, the “Cytotoxicity HeLa” value in the series on HeLa is on record as more than 20. The In vitro activity (MIC) S. aureus SG511 in the series with S. aureus SG511 is more than 0.2 µM. The same compound gave an In vitro activity (MIC) M. kansasii in the series on M. kansasii (ATCC:12478) of less than 0.02 µM. Besides, in the series with Mtb H37Rv (ATCC#27294), the “Activity against M. tuberculosis (in words)” value is reported as “impressive activity”. In addition, in the series with Mtb H37Rv (ATCC#27294) (setting [2]), the MIC was less than 0.02 µM. Moreover, the minimal inhibitory concentration (MIC) with Mtb H37Rv (ATCC#27294) (setting [3]) was less than 0.02 µM. Also, the In vitro activity (MIC) M. smegmatis in the series on M. smegmatis (MC2155) amounted to 0.002 µM. In addition, in series [1], the “Activity against M. bovis (in words)” value is listed as “impressive activity” and the In vitro activity (MIC) M. bovis is less than 0.02 µM. Further, the “Cytotoxicity MCF-7” value in the series on MCF-7 (breast cancer) is recorded as more than 20. In addition, the In vitro activity (MIC) M. luteus ATCC10240 in the series with M. luteus ATCC10240 was more than 200 µM. The compound further displayed an In vitro activity (MIC) M. vaccae IMET10670 in the series with M. vaccae IMET10670 of 0.002 µM.

Regarding `C[C@H]1COC2(CCN(c3nc(=O)c4cc(C(F)(F)F)cc([N+](=O)[O-])c4[s+]3[O-])CC2)O1` (stereo partly drawn) [Compound 5, 2-((S)-2-Methyl-1,4-dioxa-8-azaspiro[4.5]decan-8-yl)-8-nitro-6-(trifluoromethyl)-4H-benzo[e][1,3]thiazin-4-one 1-oxide], the “In vitro activity (MIC) M. aurum” value in the series with M. aurum (SB66) was 3.13-12.5. In the series with M. marinum (ATCC: 927), the “Activity against M. marinum (in words)” value was “demonstrated activity” and the In vitro activity (MIC) M. marinum worked out at 0.19 µM. The “In vitro activity (MIC) P. aeruginosa KW799/61” value with P. aeruginosa KW799/61 is listed as more than 200. Besides, the In vitro activity (MIC) A. baumanii ATCC17961 in the series with A. baumanii ATCC17961 is more than 200 µM. Moreover, the “Cytotoxicity PC3” value in the series on PC3 (prostate cancer) was determined as 15. In addition, in the series with HeLa, the “Cytotoxicity HeLa” value was more than 20. Further, the In vitro activity (MIC) S. aureus SG511 in the series with S. aureus SG511 turned out to be 12.5 µM. Moreover, in the series on M. kansasii (ATCC:12478), the “Activity against M. kansasii (in words)” value is recorded as “demonstrated activity” and the In vitro activity (MIC) M. kansasii turned out to be 0.3 µM. In addition, in the series on Mtb H37Rv (ATCC#27294), the “Activity against M. tuberculosis (in words)” value is “impressive activity”. For the same compound, the minimal inhibitory concentration (MIC) with Mtb H37Rv (ATCC#27294) (setting [2]) was 0.06 µM (≈ 0.0268 µg/mL). In the series on Mtb H37Rv (ATCC#27294) (setting [3]), the MIC was less than 0.02 µM. The compound further registered an In vitro activity (MIC) M. smegmatis with M. smegmatis (MC2155) of less than 0.013 µM. For the same compound, in series [1], the “Activity against M. bovis (in words)” value was “impressive activity” and the In vitro activity (MIC) M. bovis was found to be 0.21 µM. Further, in the series with MCF-7 (breast cancer), the “Cytotoxicity MCF-7” value is more than 20. The In vitro activity (MIC) M. luteus ATCC10240 in the series on M. luteus ATCC10240 came out at 50 µM. In addition, the In vitro activity (MIC) M. vaccae IMET10670 with M. vaccae IMET10670 is less than 0.013 µM.

For `C[C@H]1COC2(CCN(C3=NC(=O)c4cc(C(F)(F)F)cc([N+](=O)[O-])c4S3(=O)=O)CC2)O1` [Compound 6, (S)-2-(2-Methyl-1,4-dioxa-8-azaspiro[4.5]decan-8-yl)-8-nitro-6-(trifluoromethyl)-4H-benzo[e][1,3]thiazin-4-one 1,1-dioxide], the “In vitro activity (MIC) M. aurum” value in the series with M. aurum (SB66) is on record as more than 200. For the same compound, the “Activity against M. marinum (in words)” value with M. marinum (ATCC: 927) is “either inactive or weakly inactive”. Also, the “In vitro activity (MIC) P. aeruginosa KW799/61” value in the series with P. aeruginosa KW799/61 is reported as more than 200. In the series on A. baumanii ATCC17961, this compound returned an In vitro activity (MIC) A. baumanii ATCC17961 of more than 200 µM. In addition, the “Cytotoxicity PC3” value with PC3 (prostate cancer) is on record as more than 20. Besides, the “Cytotoxicity HeLa” value in the series with HeLa was more than 20. Moreover, the In vitro activity (MIC) S. aureus SG511 in the series with S. aureus SG511 was determined as 0.2 µM. In addition, in the series on M. kansasii (ATCC:12478), the “Activity against M. kansasii (in words)” value is “either inactive or weakly inactive”. The “Activity against M. tuberculosis (in words)” value with Mtb H37Rv (ATCC#27294) was “only weakly active”. Further, the values for the MIC in the series with Mtb H37Rv (ATCC#27294) (setting [2]) and in the series on Mtb H37Rv (ATCC#27294) (setting [3]) were 1.46 µM (≈ 0.677 µg/mL) and 0.75 µM, respectively. The compound also yielded an In vitro activity (MIC) M. smegmatis in the series on M. smegmatis (MC2155) of more than 0.5 µM. The “Activity against M. bovis (in words)” value in series [1] is “only weakly active”. Also, the “Cytotoxicity MCF-7” value with MCF-7 (breast cancer) is listed as more than 20. The same compound gave an In vitro activity (MIC) M. luteus ATCC10240 in the series on M. luteus ATCC10240 of more than 200 µM. The compound further displayed an In vitro activity (MIC) M. vaccae IMET10670 with M. vaccae IMET10670 of less than 0.013 µM.

As to `NNC(=O)c1ccncc1` [INH], the In vitro activity (MIC) M. marinum in the series with M. marinum (ATCC: 927) was more than 8 µM. In the series on M. kansasii (ATCC:12478), this compound came in with an In vitro activity (MIC) M. kansasii of 3.86 µM. For the same compound, the MIC in the series with Mtb H37Rv (ATCC#27294) (setting [2]) came out at 0.1 µM (≈ 0.0137 µg/mL); in the series with Mtb H37Rv (ATCC#27294) (setting [3]) it was 0.03 µM. Also, the In vitro activity (MIC) M. bovis in series [1] was 0.5 µM.

With `CO[C@H]1/C=C/O[C@@]2(C)Oc3c(C)c(O)c4c(O)c(c(/C=N/N5CCN(C)CC5)c(O)c4c3C2=O)NC(=O)/C(C)=C\C=C\[C@H](C)[C@H](O)[C@@H](C)[C@@H](O)[C@@H](C)[C@H](OC(C)=O)[C@@H]1C` [Rifampin], the In vitro activity (MIC) M. marinum in the series on M. marinum (ATCC: 927) was determined as 0.23 µM. This compound showed an In vitro activity (MIC) M. kansasii in the series on M. kansasii (ATCC:12478) of 0.1 µM. Further, the minimal inhibitory concentration (MIC) with Mtb H37Rv (ATCC#27294) (setting [2]) worked out at 0.05 µM (≈ 0.0411 µg/mL); with Mtb H37Rv (ATCC#27294) (setting [3]), 0.04 µM. This compound also yielded an In vitro activity (MIC) M. bovis in series [1] of 0.02 µM.

What is called MIC is the lowest concentration found to suppress growth.
